Series [1] has as its system Mouse fibroblast cells (ATCC CRL-10225). The format is cell-based.
For series [2] the test system is unchanged. Description: Glucose and lactate metabolic rate of fibroblast cells exposed to toxicants in 24-well plate. The note with it: 6 hours; for glucose metabolic rate / lactate metabolic rate: different concentrations; for cell death on exposure: trypan blue exclusion.

The structures appear in SMILES notation.

For `O=[N+]([O-])c1ccc(O)c([N+](=O)[O-])c1` [2,4-dinitrophenol], in series [1], the “effect on medium acidification rate at low concentrations” value is “stimulate” and the “effect on medium acidification rate with concentration increasing” value was “stimulation effects become weak until inhibition effects are observed”. Further, in series [2], the glucose metabolic rate entry was “opposite impact”, the lactate metabolic rate result is recorded as “opposite impact” and the “cell death on exposure” value is reported as “not observed”.
`[F-].[Na+]` [fluoride, sodium fluoride]: in series [2], the glucose metabolic rate entry is reported as “inhibited in concentration dependent manner” and the lactate metabolic rate result is listed as “inhibited in concentration dependent manner”. In addition, the “cell death on exposure” value in series [2] (concentration 10 mM) is listed as “all cells died”.

The values above are taken from patent publication US20070015132A1 (priority 2001, published 2007).
